What was measured:
[1] = system: demineralized bone matrix particles; assay: Bone differentiation of AGE-modified demineralized bone matrix implanted in rats; assay type: in vivo, rat; settings: matrix incubated with glycolaldehyde
Protocol: In order to assess the possible role of hyperglycemia-induced matrix modifications in this process, demineralized bone matrix particles from 35 week old normal Long-Evans rats were prepared. Matrix is incubated in phosphate buffered saline alone (PBS), PBS containing various sugar precursors of AGE (PBS−G), and PBS with sugars plus the AGE-inhibitor aminoguanidine (PBS−G+AG). After incubation, the matrix is washed and implanted subcutaneously in normal rats. Twelve days after implantation, ^45CaCl2 is injected to determine implant mineralization, and alkaline phosphatase activity is measured to assess osteoblast function. Duplicate specimens are fixed, embedded and stained for histologic evaluation.

mice = settings: subcutaneously; cited from earlier work
rats = settings: subcutaneously, rats; cited from earlier work
bovine serum albumin = assay: Formation of fluorescent advanced glycosylation end products in albumin incubated with glucose; assay type: biochemical; settings: 200 mM agent, 6 mg/mL BSA, 200 mM glucose, 37° C., two-week incubation, vs control
Protocol: To measure the ability of certain of the agents of the present invention to inhibit the production of advanced glycosylated end products in vitro, albumin and glucose were incubated together for two weeks in the presence of several test agents. Samples were taken at regular intervals for analysis. Advanced glycosylation end products were measured as appearance of fluorescent compounds, and early glycosylation products were measured by incorporation of radiolabeled glucose into albumin. Reaction conditions were as follows. […]
After the incubation periods, samples were treated as follows. After dialysis to remove all unbound glucose, the amount of protein present was measured with a standard dye-binding assay. The amount of glucose which became bound to the albumin, a measure of early glycosylation products, was determined by precipitating albumin with trichloroacetic acid and measuring the radioactivity of the bound glucose using scintillation counting.
The results of this experiment are expressed graphically in FIG. 1. For each sample, incorporation of radiolabeled glucose is indicated by the solid portion of the bar, and fluorescence is indicated in the open portion of the bar. All values are expressed as per milligram of albumin. […]

gelatin (collagen) = assay: Protein trapping: radioiodinated albumin bound to gelatin (collagen) agarose beads with glucose-6-phosphate; assay type: biochemical; settings: agent 200 mN, 400 mN glucose-6-phosphate, two weeks, 37° C.
Text: To more precisely measure the effect of the agents on the inhibition of protein crosslinking, an assay system was devised to measure the extent of in vitro binding of a soluble protein to an insoluble protein. This assay system mimics the events which occur in tissues in which serum proteins become bound to proteins in extravascular matrix and which lead to accumulation of protein and narrowing of vessel lumina in several other tissues. These events in vivo give rise to kidney disease and atherosclerotic disease, and lead to the pathologies associated with diabetes and aging.
To measure protein trapping (i.e., binding or accumulation), gelatin (collagen) was coupled to activated agarose beads (Affigel 10, Bio-Red Laboratories) by routine methods. After coupling, all remaining active sites on the beads were quenched by reaction with glycine ethyl ester.
The beads were incubated for two weeks with bovine serum albumin and 400 mN glucose-6-phosphate, a more reactive form of glucose which forms early glycosylation products with proteins more rapidly than does glucose. […] The bovine serum albumin was radioiodinated so that the amount which became bound to the beads could be measured. […]
After a two-week incubation of the reaction mixtures at 37° C., the beads were washed extensively with chaotropic agents and the covalently bound radioactivity was determined. […]

O=CCO [glycolaldehyde, reference compound]
matrix AGE content (by specific fluorescence), increase [1]: over twofold
inhibition of bone differentiation (45CaCl2 uptake, alk phos, histology) ([1]; implanted subcutaneously, 12 days): more than 90%

N=C(N)NN [aminoguanidine base, aminoguanidine]
LD50 (mice): 963 mg/kg
LD50 (rats): 1258 mg/kg

NCCCC[C@H](N)C(=O)O [Lysine, lysine]
formation of fluorescent compounds (advanced glycosylation end products) (bovine serum albumin): appeared to cause an increase in fluorescent compound formation
amount of protein trapping (radiolabeled albumin bound to collagen beads) (gelatin (collagen)): reduced the amount of protein trapping to an extent similar to that of aminoguanidine

Source: patent publication US20020115724A1, “Methods and agents for inhibiting protein aging” (priority 1985, published 2002)
